Test results: paper PMC10146491, “Meroterpenoids from Gongolaria abies-marina against Kinetoplastids: In Vitro Activity and Programmed Cell Death Study” (Pharmaceuticals, 2023)

Key:
[1] = tested on: promastigotes of Leishmania infantum; design: method as in PMID 28126391; conditions: read-out: IC50 against promastigotes of Leishmania infantum; cited from earlier work
[2] = tested on: intracellular form of L. infantum; design: method as in PMID 28126391; conditions: read-out: IC50 against the intracellular form of L. infantum; cited from earlier work
[3] = tested on: L. amazonensis promastigotes; test: ATP level analysis (Cell Titer-Glo); format: cell-based, Leishmania amazonensis; conditions: IC90 of compound, 24 h
Description: (§1) To study the mechanism of cell death induced in parasites by compounds isolated from Gongolaria abies-marina, a common step was carried out to perform the following five experiments. The promastigotes of Leishmania spp. and epimastigotes of T. cruzi were incubated at the IC90 levels of the compounds (previously calculated) for 24 h at 26 °C. After incubation, the parasites were centrifuged at 3000 rpm for 10 min at 4 °C. The pellets were resuspended following the manufacturer’s instructions for each kit. After the incubation of promastigotes and epimastigotes of the parasites with the IC90 of the compounds, the changes in ATP levels were measured using a Cell Titer-Glo® Luminescent Cell Viability Assay (Promega, WI, USA). The assay was carried out in a white 96-well plate following the manufacturer’s instructions, as previously described by Cartuche et al. (2020). The luminescence was measured using an EnSpire® Multimode Plate Reader (PerkinElmer, Madrid, Spain).

[4] = Cytotoxicity assay (Alamar Blue); format: cell-based; conditions: mouse, J774A.1 murine macrophage cell line, J774A.1, 24 h, read-out: Cytotoxicity CC50, murine macrophages
Description: (§2) To carry out the experiments, promastigotes of Leishmania amazonensis (MHOM/BR/77/LTB0016) and L. donovani (MHOM/IN/90/GE1F8R) and epimastigotes of Trypanosoma cruzi (Y strain) were employed. Leishmania species were cultured in Schneider’s medium (Sigma-Aldrich, Madrid, Spain), supplemented with 10% fetal bovine serum (VWR, Biowest, Nuaillé, France) and incubated at 26 °C. RPMI 1640 medium (Gibco, Thermo Fisher, Madrid, Spain) with or without phenol red was also used to culture the parasites at the same temperature. Epimastigotes of T. cruzi were cultured in liver infusion tryptose (LIT) medium supplemented with 10% fetal bovine serum at 26 °C. A cytotoxicity assay was performed using a murine macrophage cell line J774A.1 (ATCC TIB-67), which was maintained in Dulbecco’s modified Eagle’s medium (Gibco, Thermo Fisher, Madrid, Spain) supplemented with 10% of fetal bovine serum at 37 °C in a 5% CO2 atmosphere.
In a sterile 96-well plate, murine macrophages of the cell line J774A.1 were placed to reach an amount of 10^5 cells per well using RPMI 1640 medium without phenol red. After murine macrophage attachment, 50 µL serial dilutions of the isolated compounds were added in each well until reaching a final volume of 100 µL. Next, 10% of Alamar Blue® was placed into each well and the plate was incubated for 24 h at 37 °C with a 5% CO2 atmosphere. Finally, the plates were analyzed using an EnSpire® Multimode Plate Reader (PerkinElmer, Madrid, Spain), as described in the previous section, and the 50% cytotoxic concentration (CC50) values were calculated.
(§3) The 50% inhibitory concentration (IC50) and 50% cytotoxic concentration (CC50) values were obtained using Sigma Plot 12.0 statistical analysis software (Systat Software) and calculated using a non-linear regression analysis with 95% confidence limits. Leishmanicidal and trypanocidal activity assays, as well as cytotoxicity assays, were performed three times on different days, and the results were expressed as means ± standard deviations. The analysis of variance was determined using a one-way ANOVA using the GraphPad.PRISM® 9.0 software program (GraphPad Software, San Diego, CA, USA). Differences at p < 0.05 were considered statistically significant.

[5] = tested on: L. donovani promastigotes; test: Mitochondrial membrane potential (JC-1 assay); format: cell-based, Leishmania donovani; conditions: IC90, 24 h
Description: (§4) To study the mechanism of cell death induced in parasites by compounds isolated from Gongolaria abies-marina, a common step was carried out to perform the following five experiments. The promastigotes of Leishmania spp. and epimastigotes of T. cruzi were incubated at the IC90 levels of the compounds (previously calculated) for 24 h at 26 °C. After incubation, the parasites were centrifuged at 3000 rpm for 10 min at 4 °C. The pellets were resuspended following the manufacturer’s instructions for each kit. A JC-1 Mitochondrial Membrane Potential Assay Kit® (Cayman Chemical, Ann Arbor, MI, USA) was used to analyze variations in the mitochondrial membrane potential of the parasites after incubation at the IC90 levels of the compounds. After centrifugation, the parasites were resuspended in the same buffer and transferred to a black 96-well plate. JC-1 was added following the manufacturer’s instructions as also described by López-Arencibia et al. (2020). Green and red fluorescence was measured using an EnSpire® Multimode Plate Reader (PerkinElmer, Madrid, Spain).

[6] = tested on: promastigotes of L. amazonensis; test: Leishmanicidal activity assay (Alamar Blue), promastigotes; format: cell-based, Leishmania amazonensis; conditions: for Selectivity index (CC50/IC50), L. amazonensis: CC50 in murine macrophages; for IC50: Leishmania amazonensis, 72 h, Alamar Blue, read-out: Antikinetoplastid activity IC50, L. amazonensis
Description: as §2
(§5) With the objective of determining the antiparasitic activity of the compounds isolated from G. abies-marina, leishmanicidal activity assays were performed against promastigote stages of L. amazonensis and L. donovani, as well as a trypanocidal activity assay performed against epimastigote stages of T. cruzi. In both parasites, a colorimetric assay was used based on the Alamar Blue reagent (Life Technologies, Madrid, Spain) as previously described by Bethencourt-Estrella et al. (2021).
(§6) In a sterile 96 well-plate, serial dilutions of the extracts, fractions or compounds isolated from G. abies-marina were performed in RPMI 1640 medium without phenol red (in the case of Leishmania spp.) or in LIT (in the case of T. cruzi) with a final volume of 100 µL. Parasites were added to wells to reach a concentration of 5 × 10^5 (Leishmania spp.) or 2.5 × 10^5 (T. cruzi) until a final volume of 200 µL/well. Next, 10% of Alamar Blue® was placed into each well and the plate was incubated for 72 h at 26 °C. Finally, the fluorescence of each well was measured using an EnSpire® Multimode Plate Reader (Perkin Elmer, Madrid, Spain) (544 nm excitation, 590 nm emission) and the concentration that inhibits 50% of the parasite population (IC50) was calculated using a non-linear regression analysis with 95% confidence limits. Miltefosine and benznidazol were used as reference drugs. To analyze the data and calculate the IC50, SigmaPlot 12.0 statistical analysis software (Systat Software Inc, Palo Alto, CA, USA) was used.
as §3

[7] = tested on: intracellular amastigotes of L. amazonensis; test: In vitro effect against amastigote stage in infected macrophages; format: cell-based, Leishmania amazonensis; conditions: for Selectivity index (CC50/IC50), amastigotes of L. amazonensis: CC50 in murine macrophages; for IC50: Leishmania amazonensis, J774.A1, intracellular amastigotes in J774A.1 macrophages, 24 h treatment
Description: To determine the in vitro effect against the amastigote stage of L. amazonensis, murine macrophages were infected. In a sterile 96 well-plate, macrophages of the J774A.1 cell line were placed in RPMI 1640 to reach 10^5 macrophages per well. This plate was incubated at 37 °C in a 5% CO2 atmosphere. After one hour of incubation, 100 µL of stationary-phase promastigotes of 7-day-old culture was added in a 10:1 ratio (10^6 parasites per well) and the plates were re-incubated at 37 °C for 24 h to achieve maximum infection. Then, the wells were washed with fresh medium to remove non-phagocytosed promastigotes. The infected macrophages were treated with the compounds isolated for 24 h. Then, the medium was removed carefully to be replaced by 30 μL of 0.05% SDS and the plate was shaken for 30 s. After broke macrophages, 170 μL of Schneider’s medium was added to each well to give a final volume of 200 μL and 20 μL of Alamar Blue® was added to the plate being incubated at 26 °C for 72 h, as described by López-Arencibia et al. (2017). After 72 h of incubation, the plates were analyzed using the same protocol for the promastigote test.

[8] = tested on: epimastigotes of Trypanosoma cruzi; test: Trypanocidal activity assay (Alamar Blue), epimastigotes; format: cell-based; conditions: for Selectivity index (CC50/IC50), T. cruzi: CC50 in murine macrophages; for IC50: Trypanosoma cruzi, 72 h, Alamar Blue, read-out: Antikinetoplastid activity IC50, T. cruzi
Description: as §2, §5, §6, §3

T. cruzi epimastigotes [9] = test: ATP level analysis (Cell Titer-Glo); format: cell-based, Trypanosoma cruzi; conditions: IC90 of compound, 24 h
Description: as §1

[10] = tested on: L. donovani promastigotes; test: ATP level analysis (Cell Titer-Glo); format: cell-based, Leishmania donovani; conditions: IC90 of compound, 24 h
Description: as §1

T. cruzi epimastigotes [11] = test: Mitochondrial membrane potential (JC-1 assay); format: cell-based, Trypanosoma cruzi; conditions: IC90, 24 h
Description: as §4

[12] = tested on: promastigotes of L. donovani; test: Leishmanicidal activity assay (Alamar Blue), promastigotes; format: cell-based, Leishmania donovani
Description: as §2, §5, §6, §3

[13] = tested on: L. amazonensis promastigotes; test: Mitochondrial membrane potential (JC-1 assay); format: cell-based, Leishmania amazonensis; conditions: IC90, 24 h
Description: as §4

T. cruzi epimastigotes [14] = test: Transmission electron microscopy, ultrastructural effects; format: cell-based, Trypanosoma cruzi; conditions: IC90, 24 h
Description: (§7) The analysis of the ultrastructural and morphological damage caused by the compounds in the parasites was performed in collaboration with the Facultad de Estudios Superiores Iztacala (FESI), Medicina, UNAM (Mexico). These assays were performed after incubation of the promastigotes of L. amazonensis and epimastigotes of T. cruzi at the IC90 levels of the pure compounds over 24 h. TEM images were obtained using the conventional microscopy technique as previously described by Castelan-Ramirez et al. in a JEOL JEM-1011 transmission electron microscope (JEOL Ltd., Tokyo, Japan).

[15] = tested on: L. amazonensis promastigotes; test: as above; format: cell-based, Leishmania amazonensis; conditions: IC90, 24 h
Description: as §7

| Compound | IC50 [1] [µM] | IC50 [2] [µM] | ATP levels relative to negative control [3] | CC50 at 24 h [4] [µM] | Selectivity index (CC50/IC50), L. amazonensis [6] | IC50 [6] [µM] | Selectivity index (CC50/IC50), amastigotes of L. amazonensis [7] | IC50 [7] [µM] | Selectivity index (CC50/IC50), T. cruzi [8] | IC50 [8] [µM] | Mitochondrial membrane potential changes (JC-1) (T. cruzi epimastigotes [11]) | also measured |
| --- | --- | --- | --- | --- | --- | --- | --- | --- | --- | --- | --- | --- |
| 3R-tetraprenyltoluquinone | 44.9 | 25 | – | – | – | – | – | – | – | – | – | – |
| 3S-tetraprenyltoluquinone | 94.4 | 88 | – | – | – | – | – | – | – | – | – | – |
| COc1c(C)cc(O)cc1C/C=C(\C)CC(=O)/C=C(\C)CCCC(C)=O [Cystomexicone B (1), cystomexicone B] | – | – | significantly decreased | > 279 | > 7.61 | 36.6 ± 4.24 | >11.36 | 24.6 ± 0.83 | > 14.53 | 19.2 ± 2.62 | does not produce significant changes | Mitochondrial membrane potential changes (JC-1) [5]: does not produce significant changes; ATP levels relative to negative control (T. cruzi epimastigotes [9]): significantly decreased; ATP levels relative to negative control (T. cruzi epimastigotes [9]; listed as cystomexicone B (1)): most affected; ATP levels relative to negative control [10]: significantly decreased; Selectivity index (CC50/IC50), L. donovani ([12]; CC50 in murine macrophages): > 1.12; IC50 ([12]; Leishmania donovani, 72 h, Alamar Blue, read-out: Antikinetoplastid activity IC50, L. donovani): 248.3 ± 0.94 µM; Mitochondrial membrane potential changes (JC-1) [13]: does not produce significant changes |
| COc1c(C)cc(O)cc1C/C=C(\C)CC(=O)C/C(C)=C/CC[C@@H](C)C(=O)/C=C/C(C)(C)O [Gongolarone B (2), gongolarone B] | – | – | decreased | 24.4 ± 3.98 | 3.79 | 6.45 ± 0.44 | 1.50 | 16.2 ± 1.9 | 8.36 | 2.92 ± 0.25 | greatest decrease | Ultrastructural and morphological alterations (TEM) (T. cruzi epimastigotes [14]; listed as gongolarone B): morphological mitochondrial (M) and kinetoplast (K) alterations, chromatin condensation in the nucleus (*), intense vacuolization (V) and the formation of some autophagy vacuoles; Ultrastructural and morphological alterations (TEM) (T. cruzi epimastigotes [14]; listed as gongolarone B (2)): Morphological alterations of the mitochondria and kinetoplast; Ultrastructural and morphological alterations (TEM) [15]: mitochondrial expansion (M), chromatin condensation in the nucleus (*), intense vacuolization (V), the formation of some autophagy vacuoles; Activity against L. donovani (in words) [12]: lost its activity |
